Test results reported in patent US7388071B2, “Composition and method for inducing and enhancing a telomerase reverse transcriptase-reactive cytotoxic T lymphocyte response” (The Regents of the University of California, priority 2000, dated 2008).
Peptide text beside a SMILES is read from it.

Legend:
HLA-A2.1 molecule = target: T1, HLA-A2.1 molecule (Homo sapiens, UniProt P04439, D140Y/D185E/D98H/E176V/E277Q/G131W/G231S/I119V/I121R/I166T/I218V/L300P/L318F/N151K/N90K/P208A/P217A/Q86G/Q94H/R138H/R169H/T345S); test: HLA-A2.1 binding/stabilization assay on TAP- T2 cells; settings: time required for a 50% reduction in mean fluorescence intensity
T1 construct: endogenous in cells; host or cells: human T2 cells (TAP-, HLA-A2.1+)
Method: The relative avidity was measured as previously described (25). Briefly, T2 cells were incubated overnight at 37° C. in RPMI supplemented with human β2-microglobulin (100 ng/ml) (Sigma, St. Louis, Mo.) in the absence (negative control) or presence of the test peptide or the reference peptide 4761[…]484 (SEQ ID NO:7) of HIV-1 reverse transcriptase at various final peptide concentrations (0.1-100 μM). Cells were incubated with Brefeldin A (0.5 μg/ml) for one hour and subsequently stained with a saturating concentration of monoclonal antibody BB7.2 for 30 minutes at +4° C. followed by washing and a second incubation with a goat antibody to mouse Ig (Fab′)2 conjugated to FITC (Caltag, South San Francisco). Cells were then washed, fixed with 1% paraformaldehyde and analyzed in a FACs Calibur cytofluorimeter (Becton & Dickinson, San Jose, Calif.). The mean fluorescence intensity of each concentration minus that of cells without peptide was used as an estimate of peptide binding. […] Dissociation of the test peptide from the HLA-A2.1 molecule reflects the half-life of fluorescence intensity of the peptide/MHC complex over time. The half-life of the complex (DC50) refers to the time (hours) required for a 50% reduction of the TO mean fluorescence intensity (25). Synthetic peptides 571[…]579 (SEQ ID NO:5) of carcinoembryonic antigen (CEA) and 476[…]486 (SEQ ID NO:6) of melanoma antigen gp100 were used as internal controls to account for inter-tests variability and for consistency with previously reported RA and DC50 measures (25).
Since the immunogenicity of MHC Class I-restricted peptides reflects to some degree their binding and stabilizing capacity for MHC Class I molecules (31-33) Applicant sought direct proof of the strength of interaction between the two hTRT peptides and the HLA-A2.1 molecule in a conventional binding/stabilization assay that uses the antigen-transporting deficient (TAP-) HLA-A2.1+ human T2 cells. […] The stability of each peptide bound to HLA-A2.1 was measured as the half-life of the complex

HLA-A2+ CD34+ cells = settings: reference 24; cited from earlier work
[1] = system: hTRT+/HLA-A2+ melanoma cell line 624; test: Normal donor CTL against p572(Y), lysis of melanoma 624; format: cell-based, human; settings: normal blood donor PBMC immunized in vitro
Source text: FIG. 6. […] The results are expressed as percent lysis and show by comparison lysis of 624 melanoma cells, and HLA-A2+T2 target cells pulsed with the p572(Y) and p572 wild type peptides, respectively. Nonspecific lysis of T2 cells is shown as a control.
CTL generated against p572 were also able to lyze the hTRT+/HLA-A2+ melanoma cell line 624. The antigen-recognition activity of T cells is intimately linked with recognition of MHC (HLA in humans) molecules.

[2] = system: HLA-A2+T2 target cells pulsed with peptide; test: In vitro immunization of normal HLA-A2+ donor PBMC with Y-modified hTRT peptides; format: cell-based, human
Source text: PBMC from three normal HLA-A2+ individuals were immunized with the Y-modified peptides. The results are summarized as follows (Table VII).

[3] = target: T2, HLA-A2.1 molecule on TAP-deficient human T2 cells (human); test: T2 cell HLA-A2.1 binding/stabilization assay, BB7.2 flow cytometry; ratio of peptide concentration giving 20% of maximal binding, against reference peptide [..] (SEQ ID NO:7) of HIV-1 reverse transcriptase; lower is stronger
T2 construct: MHC class I molecule on the surface of T2 cells; also called MHC Class I
Method: Briefly, T2 cells were incubated overnight at 37° C. in RPMI supplemented with human β2-microglobulin (100 ng/ml) (Sigma, St. Louis, Mo.) in the absence (negative control) or presence of the test peptide or the reference peptide 476_1[…]$484$ (SEQ ID NO:7) of HIV-1 reverse transcriptase at various final peptide concentrations (0.1-100 µM). Cells were incubated with Brefeldin A (0.5 µg/ml) for one hour and subsequently stained with a saturating concentration of monoclonal antibody BB7.2 for 30 minutes at +4° C. followed by washing and a second incubation with a goat antibody to mouse Ig (Fab')2 conjugated to FITC (Caltag, South San Francisco). Cells were then washed, fixed with 1% paraformaldehyde and analyzed in a FACs Calibur cytofluorimeter (Becton & Dickinson, San Jose, Calif.). The mean fluorescence intensity of each concentration minus that of cells without peptide was used as an estimate of peptide binding. […] Dissociation of the test peptide from the HLA-A2.1 molecule reflects the half-life of fluorescence intensity of the peptide/MHC complex over time. The half-life of the complex (DC50) refers to the time (hours) required for a 50% reduction of the TO mean fluorescence intensity (25). Synthetic peptides $571$[…]$579$ (SEQ ID NO:5) of carcinoembryonic antigen (CEA) and $476$[…]$486$ (SEQ ID NO:6) of melanoma antigen gp100 were used as internal controls to account for intertests variability and for consistency with previously reported RA and DC50 measures (25).
Since the immunogenicity of MHC Class I-restricted peptides reflects to some degree their binding and stabilizing capacity for MHC Class I molecules (31-33) Applicant sought direct proof of the strength of interaction between the two hTRT peptides and the HLA-A2.1 molecule in a conventional binding/stabilization assay that uses the antigen-transporting deficient (TAP-) HLA-A2.1+ human T2 cells.

CC[C@H](C)[C@H](N)C(=O)N[C@@H](CC(C)C)C(=O)N[C@@H](C)C(=O)N[C@@H](CCCCN)C(=O)N[C@@H](Cc1ccccc1)C(=O)N[C@@H](CC(C)C)C(=O)N[C@@H](Cc1c[nH]cn1)C(=O)N[C@@H](Cc1c[nH]c2ccccc12)C(=O)N[C@@H](CC(C)C)C(=O)O [p540] (H-ILAKFLHWL-OH)
DC50 (half-life of peptide/HLA-A2.1 complex) (HLA-A2.1 molecule): 4 to 6 h | lysis of HLA-A2+ CD34+ cells by CTL raised in normal individuals (HLA-A2+ CD34+ cells): did not lyse

CC(C)C[C@H](NC(=O)[C@H](Cc1ccccc1)NC(=O)[C@H](CC(=O)O)NC(=O)[C@H](CC(=O)O)NC(=O)[C@@H](NC(=O)[C@H](CC(C)C)NC(=O)[C@@H](N)CCCNC(=N)N)C(C)C)C(=O)N[C@@H](CC(C)C)C(=O)N[C@H](C(=O)O)C(C)C [p865] (H-RLVDDFLLV-OH)
DC50 (half-life of peptide/HLA-A2.1 complex) (HLA-A2.1 molecule): 2 to 4 h

RLFFYRKSV [p572 wild type]
lysis of melanoma cell line 624 in words [1]: able to lyze

VLYRYGSFSV (listed as Homo sapiens) [gp100 p476, peptide of human melanoma antigen gp100, internal control]
DC50 (half-life of peptide/HLA-A2.1 complex) (HLA-A2.1 molecule): 4 to 6 h

YELLRSFFYV (listed as Homo sapiens) [p555(Y), Y-modified hTRT peptide p555]
CTL against target cells pulsed with p555(Y) ([2]; donor 218): 4% | CTL against target cells pulsed with p555(Y) ([2]; donor 219): 8% | CTL against target cells pulsed with p555(Y) ([2]; donor 222): 1%

YLARCALFV (listed as Homo sapiens) [p152(Y), Y-modified hTRT peptide p152]
CTL against target cells pulsed with p152(Y) ([2]; donor 218): 7% | CTL against target cells pulsed with p152(Y) ([2]; donor 219): 2% | CTL against target cells pulsed with p152(Y) ([2]; donor 222): 1%

YLFFYRKSV (listed as Homo sapiens) [p572(Y), Y-modified hTRT peptide p572]
CTL against target cells pulsed with p572(Y) ([2]; donor 218): 48-50% | CTL against target cells pulsed with p572 wild type ([2]; donor 218): 26-46% | CTL against target cells pulsed with p572(Y) ([2]; donor 219): 4% | CTL against target cells pulsed with p572(Y) ([2]; donor 222): 27% | CTL against target cells pulsed with p572 wild type ([2]; donor 222): 5% | lysis of melanoma cell line 624 in words [1]: kill melanoma cells 624

B1: hTRT p540 synthetic peptide (residues 540-548 of human telomerase reverse transcriptase) (peptide)
peptide: ILAKFLHWL
notes: Synthetic 9mer, bought from the Biopolymer Synthesis Center (CalTech)
Relative Avidity (RA) [3]: 2.9

VLYRYGSFSV (bought from Neosystem) [gp100 p476 synthetic peptide of human melanoma antigen gp100]
Relative Avidity (RA) [3]: 9

B2: hTRT p865 synthetic peptide (residues 865-873 of human telomerase reverse transcriptase) (peptide)
peptide: RLVDDFLLV
notes: as for B1
Relative Avidity (RA) [3]: 2.5
